Experimental findings from patent publication US10633375B2, “Oxopicolinamide derivative, preparation method therefor and pharmaceutical use thereof” (Jiangsu Hengrui Medicine Co., Ltd., priority 2016, dated 2020) are described below.

The subject of one data set is human blood. The data set can be described thus: In vitro anticoagulant effect on human blood (APTT, CT2). Conditions: concentration corresponding to 2 times the APTT of the blank control, human plasma. As for the experimental part:
Test Example 2: Determination of In Vitro Anticoagulant Effect of the Compounds of the Present Invention on Human Blood
1. Experimental Materials
Plasma: Human blood was collected in blood collection tubes containing no anticoagulant, and then 3.8% sodium citrate (volume ratio 1:9) was added. The tubes were centrifuged at 2500 rpm for 10 minutes at room temperature, and then the plasma was collected and stored at −80° C.;
Reagents: APTT reagent (Activated partial thromboplastin time assay kit, SIEMENS, Art. No. B4218-1), calcium chloride solution;
Instrument: Coagulation instrument (SYSMEX, CA-500).
The divided plasma was melted at room temperature and mixed well. 10000 μM the test compound dissolved in 100% DMSO was diluted to 3000, 300, 200, 150, 75, 30, 10, 3, 0.3 μM with 100% DMSO, and the blank was 100% DMSO. The reagent, plasma, and compound were placed in corresponding positions in the coagulation instrument, and APTT detection of the compound was carried out.
Curve fitting was carried out by graphpad and CT2 was calculated, i.e., the concentration of the compound corresponding to 2 times the APTT of the blank control.

The target of data set [1] is Coagulation Factor XIa protease (Homo sapiens (Human), UniProt P03951). The data set can be described thus: Inhibition of Factor XIa detected by absorption photometry. Type of data set: biochemical. Conditions: absorbance at 405 nm, 10 minutes at 37° C. The method, boiled down: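 Compounds were serially diluted in 100% DMSO (200-0.002 μM dilution series) before addition to the wells. FXIa enzyme solution at 2.5 μg/ml and substrate solution at 2 mM were then added, both stock concentrations. After 10 min at 37° C., absorbance was read at 405 nm.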

Data set [2] is described as follows: Pharmacokinetics assay in rats after intragastrical administration. It is filed as in vivo, Sprague-Dawley (SD) rats. Conditions: SD rats, intragastric, 2 mg/kg; for Vd/F / AUC / CL/F / half-life / MRT / Cmax: both sexes, Sprague-Dawley, rat, plasma, po; for Vd/F: read-out: Apparent Distribution Volume Vz/F; for AUC: read-out: Area Under Curve AUC; for CL/F: read-out: Clearance CLz/F; for half-life: read-out: Half-Life T½ (converted); for MRT: read-out: Mean Residence Time MRT; for Cmax: read-out: Plasma Concentration Cmax. The source says: Test Example 3. Pharmacokinetics Assay of the Compounds of the Present Invention
Rats were used as test animals. […] The pharmacokinetic behavior of the compounds of the present invention was studied and evaluated in rats.
56 healthy adult Sprague-Dawley (SD) rats, half male and half female, were purchased from SINO-BRITSH SIPPR/BK LAB. ANIMAL LTD., CO, with License No.: SCXK (Shanghai) 2008-0016.
2.3 Preparation of the Test Compounds
A certain amount of the test compound was weighed, and added with 5% by volume of DMSO, 5% by volume of Tween 80 and 90% normal saline to prepare a 0.2 mg/mL colorless, clear and transparent solution.
After an overnight fast, SD rats were intragastrically administered at a dose of 2.0 mg/kg and an administration volume of 10.0 mL/kg.
Blood (0.2 mL) was taken from the orbital sinus before administration and at 0.5, 1.0, 2.0, 4.0, 6.0, 8.0, 11.0 and 24.0 hours after administration. The samples were stored in heparin anticoagulation tubes, and centrifuged for 10 minutes at 3500 rpm at 4° C. to separate the blood plasma. The plasma samples were stored at −20° C. The rats were fed 2 hours after administration.
The content of the test compound in the plasma of rats after intragastric administration of different concentrations of the drug was determined: 25 μL of rat plasma at each time after administration was taken and added with 30 μL (100 ng/mL) of the internal standard solution of camptothecin and 200 μL of acetonitrile, shaken vertically for 5 minutes, and centrifuged for 10 minutes (4000 rpm). 3.0 μL of the supernatant was taken from the plasma samples for LC/MS/MS analysis.
4. Results of Pharmacokinetic Parameters
Pharmacokinetic parameters of the compounds of the present invention in rats are shown below.

Coagulation Factor XIa protease, sequence (P03951 388-625): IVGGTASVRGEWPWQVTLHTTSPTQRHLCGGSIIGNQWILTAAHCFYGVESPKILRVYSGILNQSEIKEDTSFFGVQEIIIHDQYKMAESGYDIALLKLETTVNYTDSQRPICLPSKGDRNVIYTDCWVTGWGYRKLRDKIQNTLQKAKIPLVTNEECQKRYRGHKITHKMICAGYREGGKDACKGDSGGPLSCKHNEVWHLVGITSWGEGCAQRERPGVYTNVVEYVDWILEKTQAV
Coagulation Factor XIa protease, sequence (P03951 19-387 partner): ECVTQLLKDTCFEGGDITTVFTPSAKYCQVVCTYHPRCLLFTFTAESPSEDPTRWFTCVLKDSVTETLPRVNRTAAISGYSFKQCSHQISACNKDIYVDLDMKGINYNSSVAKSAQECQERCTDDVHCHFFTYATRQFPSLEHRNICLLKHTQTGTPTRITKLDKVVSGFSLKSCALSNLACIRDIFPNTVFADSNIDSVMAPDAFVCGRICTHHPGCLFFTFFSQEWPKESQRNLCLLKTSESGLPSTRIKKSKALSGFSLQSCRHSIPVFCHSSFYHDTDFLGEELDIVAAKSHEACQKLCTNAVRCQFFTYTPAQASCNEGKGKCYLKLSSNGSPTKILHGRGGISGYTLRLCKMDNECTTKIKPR

As to `[2H]C([2H])([2H])Oc1cn([C@@H](CCOC(C)(C)C)C(=O)Nc2ccc(C(=O)O)cc2)c(=O)cc1-c1cc(Cl)ccc1C(=O)CC` [Example 177, 4-[[(2S)-4-tert-butoxy-2-[4-(5-chloro-2-propionyl-phenyl)-2-oxo-5-(trideuteromethoxy)-1-pyridyl]butyryl]amino]benzoic acid], the “CT2, concentration doubling APTT” value in the data set on human blood (Table 2) came to 1.5 µM.
For `COc1cn([C@@H](CCOC(C)(C)C)C(=O)Nc2ccc3nccnc3c2)c(=O)cc1-c1cc(Cl)ccc1-c1nc(C)no1` [Comparative Example 2, (S)-4-(tert-butoxy)-2-(4-(5-chloro-2-(3-methyl-1,2,4-oxadiazol-5-yl)phenyl)-5-methoxy-2-oxopyridin-1 (2H)-yl)-N-(quinoxalin-6-yl)butanamide, reference compound], the “CT2, concentration doubling APTT” value in the data set on human blood (Table 3 comparison) turned out to be 13.1 µM.
For `COc1cn([C@@H](CC2CCC2)C(=O)Nc2ccc(C(=O)O)cc2)c(=O)cc1-c1cc(Cl)ccc1C(C)=O` [Example 171, (S)-4-(2-(4-(2-acetyl-5-chlorophenyl)-5-methoxy-2-oxopyridin-1(2H)-yl)-3-cyclobutylpropanamido)benzoic acid], the IC50 (usually the concentration at which inhibition is half-maximal) in data set [1] turned out to be 35 nM. Also, in data set [2], the Vd/F worked out at 6.24 ± 2.15 L/kg; the AUC (as a rule, concentration integrated over time) worked out at 701 ± 175 ng·h/mL; the CL/F stood at 49.9 ± 12.5 mL/min/kg; the half-life (as a rule, how long it takes for the measured level to halve) was 1.45 ± 0.32 h. For the same molecule, in data set [2], the MRT (commonly a mean duration of stay, worked out from the concentration-time curve) is 1.71 ± 0.32 h and the Cmax worked out at 462 ± 116 ng/mL.
As for `[2H]C([2H])([2H])C(=O)c1ccc(Cl)cc1-c1cc(=O)n([C@H](Cc2ccccc2)C(=O)Nc2ccc(C(=O)O)cc2)cc1OC` [Example 184, 4-[[(2R)-2-[4-[5-chloro-2-(2,2,2-trideuteroacetyl)phenyl]-5-methoxy-2-oxo-1-pyridyl]-3-phenyl-propionyl]amino]benzoic acid], the “CT2, concentration doubling APTT” value in the data set on human blood (Table 2) is greater than 10000 µM.
`COc1cn([C@@H](Cc2cccnc2)C(=O)Nc2ccc(C(=O)O)cc2)c(=O)cc1-c1cc(Cl)ccc1C(C)=O` [Example 84, (S)-4-(2-(4-(2-acetyl-5-chlorophenyl)-5-methoxy-2-oxopyridin-1(2H)-yl)-3-(pyridin-3-yl)propanamido)benzoic acid]: the half-inhibitory concentration (IC50) in data set [1] amounted to 42 nM. Further, in data set [2], the “AUC difference, Example 84 versus Comparative Example 1” value is 7.5 times; the “Cmax difference, Example 84 versus Comparative Example 1” value was found to be 6.9 times; the Vd/F worked out at 37.9 ± 8.23 L/kg; the AUC was found to be 54.6 ± 19.1 ng·h/mL. Besides, in data set [2], the CL/F was 673 ± 235 mL/min/kg, the half-life was 0.68 ± 0.14 h, the MRT amounted to 1.2 ± 0.2 h and the Cmax amounted to 48.8 ± 8.8 ng/mL.
On to `COc1cn([C@@H](Cc2ccncc2)C(=O)Nc2ccc(C(=O)O)cc2)c(=O)cc1-c1cc(Cl)ccc1C#N` [Comparative Example 1, (S)-4-(2-(4-(5-chloro-2-cyanophenyl)-5-methoxy-2-oxopyridin-1(21)-yl)-3-(pyridin-4-yl)propanamido)benzoic acid, reference compound], for which, in data set [2], the exposure (AUC) was 7.27 ± 3.37 ng·h/mL and the Cmax was 7.02 ± 2.97 ng/mL.
In turn, `COc1cn(C(Cc2ccccc2)C(=O)Nc2ccc(C(=O)O)cc2F)c(=O)cc1-c1cc(Cl)ccc1C(C)=O` (centres unmarked) [Example 29, 4-(2-(4-(2-acetyl-5-chlorophenyl)-5-methoxy-2-oxopyridin-1 (2H)-yl)-3-phenylpropanamido)-3-fluorobenzoic acid] gave an IC50 in data set [1] of 90 nM. In data set [2], the Vd/F stood at 45.4 ± 16.5 L/kg, the AUC is 382 ± 98 ng·h/mL, the CL/F turned out to be 92.5 ± 28.3 mL/min/kg and the half-life was 6.06 ± 2.99 h. Besides, in data set [2], the MRT came out at 5 ± 2.57 h and the Cmax turned out to be 167 ± 45 ng/mL.
In data set [1], `COc1cn(C(Cc2ccc(NC(C)=O)cc2)C(=O)Nc2ccc(C(=O)O)cc2)c(=O)cc1-c1cc(Cl)ccc1C(C)=O` (centres unmarked) [Example 75, 4-(3-(4-acetamidophenyl)-2-(4-(2-acetyl-5-chlorophenyl)-5-methoxy-2-oxopyridin-1(2H)-yl)propanamido)benzoic acid] showed an IC50 of 100 nM.
